Test results reported in ChEMBL document CHEMBL1138816, “Design and synthesis of novel N-acetylgalactosamine-terminated glycolipids for targeting of lipoproteins to the hepatic asialoglycoprotein receptor” (J Med Chem, 2004).

Legend:
Mus musculus [1] = experiment: Percentage liver uptake of [125I]LDL upon intravenous injection to C57BL/6J mice; format: functional
Mus musculus [2] = experiment: Percentage liver uptake of [3H]HDL upon intravenous injection to C57BL/6J mice
Mus musculus [3] = species on record: Mus musculus; experiment: Lipoprotein lowering effect in mice at 3-6 hrs was determined; format: functional
[4] = Half-life in C57BL/6J mice upon intravenous administration of 3.33 mg/kg; format: ADME, organism-based; parameters: dose 3.33 mg/kg, route intravenous; details: mouse, in vivo
[5] = Binding affinity for mouse asialoglycoprotein receptor using [125I]-glycolipid3
[6] = Uptake by the liver in mice at 60 min after injection; format: ADME, tissue-based; details: mouse, in vivo, 1 h

half-life [4]: ~30 min
Uptake [6]: 44%
Structure (SMILES): CCCCCCCC/C=C\CCCCCCCC(=O)N[C@H]1CC[C@@]2(C)C(CC[C@H]3[C@@H]4CC[C@H](C(C)CCC(=O)N[C@@H](Cc5ccc(O)cc5)C(=O)NCC(=O)NC(COCCC(=O)NCCOCCOCCOC5OC(CO)C(O)C(O)C5NC(C)=O)(COCCC(=O)NCCOCCOCCOC5OC(CO)C(O)C(O)C5NC(C)=O)COCCC(=O)NCCOCCOCCOC5OC(CO)C(O)C(O)C5NC(C)=O)[C@@]4(C)CC[C@@H]32)C1 (stereo partly specified)
Activity (Mus musculus [1]): 70%
Activity (Mus musculus [2]): 78%
Peak effect (Mus musculus [3]): 20%
Ki [5]: 2 nM
